Three substances from patent US20030118983A1, “Rapid screening procedure for inflammation mediators” (priority 2000, published 2003) can be followed below.

Common to all, as to format: cell-based, human
For data set [1], the system named is PMNs. Description: OxyHb-FLEX bound to and internalized into PMNs (flow cytometry). As to conditions: concentrations ≧30 μg/mL. On the procedure:
OxyHb bound to and internalized into PMNs was determined using fluorescein-conjugated oxyHb (Molecular Probes, Eugene, Oreg.). […] Flow cytometric measurements were performed as described above. To visualize intracellular levels of oxyHb-FLEX, whole cell and Z-plane images of PMNs were collected using an Axiovert 135 inverted confocal microscope (Zeiss, Thornwood, N.Y., and Atto Instruments, Rockville, Md.).
On the technique in general: In flow cytometry, cells or beads pass a laser one at a time.

Data set [2] relates to PMNs. Description: Heme protein effect on DCFH oxidation in unstimulated, LPS and TNFα-, and PMA-stimulated PMNs, with or without NOS inhibitors, SOD or antioxidants. As to conditions: for increase in DCFH oxidation compared with 0 and 1000 μg/mL oxyMb: 30 μg/mL oxyMb. The method, then:
DCFH-loaded PMNs were incubated with and without N-methyl-L-arginine (L-NMMA; 5 mM; Calbiochem, San Diego, Calif.) and heme proteins (0.3-1000 μg/mL) at 37 ° C. for 10 minutes. […] In unstimulated and LPS and TNFα -stimulated PMNs, the treatments were oxyMb, or oxyMb+L-NMMA (5 mM). […] RBC cell membranes were ruptured using a micro-ultrasonic cell disrupter, Kontes, Janke and Kukel Gmbh and CO. (Stauten, Germany). […] OxyMb was prepared by mixing excess sodium dithionite with Mb for 1 h and inorganic sulfur compounds were removed by dialyzing in HBSS buffer for 3 h. Percent iron in the ferric state in non-dithionite treated oxyMb or oxyHb was not assessed. […] […] cross-linked Hb was a gift from Walter Reed Army Institute of Research. […] Also, various concentrations of bovine liver Cu, Zn SOD (30-10,000 U/mL; 8-2640 μg/mL) and 30 μg/mL oxyMb were incubated with PMA-stimulated PMNs pretreated with and without L-NMMA. Flow cytometric measurements of oxidant-induced DCF fluorescence were performed as described above.

Data set [3] deals with PMNs. The experiment in a line: Total nitrite/nitrate levels in filtrates of PMA-stimulated PMNs. As to conditions: oxyMb 30 μg/mL. On the procedure:
Total nitrate and nitrite levels in filtrates of PMNs were determined by reducing the nitrate to nitrite by nitrate reductase and reacting the resulting nitrite with 2,3-diaminonaphthalene to form a fluorescent product. PMNs (500,000/300 ul HBSS) were treated with oxyMb (1-1000 µg/mL) and SOD (30 U) for 10 min followed by PMA (200 nM) for 1 h at 30° C. Filtrates were collected by centrifugation at 16,000 g for 15 min through Ultrafree-MC 10,000 NMWL filters (Millipore, Bedford, Mass.). Total nitrite levels were determined with a 96-well fluorescence analyzer (IDEXX, Westbrook, Me.). PMNs exposed to the same treatment were analyzed by flow cytometry for DCFH oxidation.

Data set [4] deals with PMNs. Description: Phosphatidylserine externalization on PMN plasma membrane (annexin V). Particulars: oxyMb 30 μg/mL, PMA 1 h. The method, then: Levels of phosphatidylserine on the outer surface of plasma membrane were determined by FITC-labeled annexin V (8 μg per 300,000 PMNs/100 μL) according to manufacturer's instructions (Caltag Laboratories, Burlingame, Calif.). PMNs were incubated with and without L-NMMA (5 mM) and oxyMb (1-1000 μg/mL) for 10 min at 37° C. followed by PMA (200 nM) for 1 h at 37° C. PMNs were then incubated with annexin V for 30 min and propidium iodide (0.75 mM) for 2-3 min at 4° C. prior to flow cytometric analyses.

Data set [5] concerns PMNs. Description: DNA strand breaks in PMA-activated PMNs (tdt-mediated dUTP nick end labeling). As to conditions: oxyMb 30 μg/mL, PMA 2 h. On the procedure: OxyMb effect on DNA strand breaks in PMA-activated PMNs was measured by flow cytometry using the tdt-mediated dUTP nick end labeling assay (In Situ Cell Death Detection Kit, Fluorescein, Boehringer Mannheim, Indianapolis, Ind.) according to manufacturer's instructions. PMNs were incubated with and without NMMA (5 mM) and oxyMb (1-1000 μg/mL) for 10 min at 37° C. PMNs were subsequently treated with PMA (200 nM) for 2 h at 37° C. Label solutions without terminal transferase or with DNase I (10 U) served as negative and positive controls, respectively.

Data set [6] has as its system PMNs. The experiment in a line: Propidium iodide determination of PMN viability (membrane integrity). Particulars: oxyMb 30 μg/mL, PMA 2 h. On the procedure: (§1) PMNs were incubated with and without L-NMMA (5 mM) and oxyMb (1-1000 μg/mL) for 10 min at 37° C. followed by PMA (200 nM) for 2 h at 37° C. Membrane integrity was determined flow cytometry analyses after a 2-3 min treatment with PI (0.75 mM).

Data set [7] concerns PMNs. The experiment in a line: ATP levels in PMA-activated PMNs (bioluminescent somatic cell assay). Particulars: oxyMb 30 μg/mL, PMA 2 h. On the procedure: OxyMb effect on ATP levels in PMA-activated PMNs was measured using the Bioluminescent Somatic Cell Assay Kit according to the manufacturer's instructions. PMNs were incubated with and without L-NIO (5 mM) and oxyMb (1-1000 μg/mL) for 10 min at 37° C. PMNs were subsequently treated with PMA (200 nM) for 2 h at 37° C. PMNs were lysed, frozen at −20° C. and analyzed within 24 h. Emitted light was determined in a camera luminometer, Tropix (Redford, Mass.) using Panchromatic black and white, ISO 20,000, type 612 film, Polaroid (Cambridge, Mass.) with an exposure time of 2.5 min. Level of exposure was measured and digitized with a solid state camera, COHU (San Diego, Calif.) and analyzed using the public domain NIH Image 1.55 program. Statistical analysis. All values are presented as mean±SEM. The Kolmogorov-Smirnov test was used to verify the normal distribution of the data. Groups were compared by using analysis of variance with the Fisher least significant difference (LSD) post hoc procedure. Statistical significance was accepted at P values<0.05.

In the next data set the test system is lymphocytes. The experiment in a line: Plasma membrane integrity of lymphocytes co-incubated with PMA-activated, oxyMb-treated PMNs. As to conditions: oxyMb 30 μg/mL. On the procedure:
as §1
A mixed PMN/lymphocyte preparation was used to determine if the NO. produced by PMNs could affect the plasma membrane integrity of neighboring lymphocytes. PMA-activated and oxyMb (30 μg/mL)-treated PMNs decreased lymphocyte plasma membrane integrity as the ratio of PMNs/lymphocyte increased from 0:1 (76%) to 4:1 (68%) to 10:1 (61%).

Data set [8] concerns PMNs. The experiment in a line: Extracellular O2.− produced by PMA-stimulated PMNs (cytochrome c reduction). The method, then:
PMNs (200,000/200 μl HBSS) were treated with various concentrations of oxyMb or bovine liver Cu, Zn SOD (0.05-1000 μg/mL) in a 340 ATTC 96-well reader (SLT-Labinstruments, Salzburg, Austria) and activated with PMA. O2.^− production was determined by measuring reduction of cytochrome c, at 550 nm.

Data set [9] has as its system PMNs. The experiment in a line: Heme protein effect on DCFH oxidation in unstimulated, LPS and TNFα-, and PMA-stimulated PMNs, with or without NOS inhibitors, SOD or antioxidants. Particulars: 10,000 U/mL; 26,300 μg/mL, 30 μg/mL oxyMb.
The mark [10] stands for this setting: LPS and TNFα-stimulated PMNs, 30 ug/mL oxyMb.

Consider “fluorescein-5-EX succinimidyl ester conjugated to oxyhemoglobin [OxyHb-FLEX]”, for which the “OxyHb-FLEX bound to and internalized into PMA-stimulated PMNs relative to unstimulated PMNs” value with PMNs [1] is recorded as 2-6 fold.

As to oxymyoglobin [oxyMb], in the data set with PMNs [2] (LPS and TNFα-stimulated PMNs), the “oxyMb concentration at which DCFH oxidation peaked” value came to 30 µg/mL. Besides, in the data set with PMNs [2] (setting [10]), the “increase in DCFH oxidation compared with 0 μg/mL oxyMb” value was “approximately 6 fold” and the “increase in DCFH oxidation compared with 1000 μg/mL oxyMb” value is roughly 3 fold. For the same substance, in the data set on PMNs [2] (PMA-stimulated PMNs), the “oxyMb concentration of peak response in DCFH oxidation” value was found to be 30 µg/mL; the “increase in DCFH oxidation compared with 0 and 1000 μg/mL oxyMb” value is “approximately 3 fold”. Moreover, in the data set on PMNs [2] (oxyMb 100 μg/mL in the presence of albumin, data not shown), the “DCFH fluorescence relative to control levels” value turned out to be 5 times. Further, in the data set with PMNs [2] (unstimulated PMNs), the “increase in DCFH oxidation compared with 0 and 1000 μg/mL oxyMb” value is on record as “approximately 4 fold”. For the same substance, the “nitrite levels compared with untreated PMNs” value with PMNs [3] is “doubling”. Moreover, in the data set on PMNs [4], the “phosphatidylserine positive PMNs” value amounted to 20% and the “phosphatidylserine positive PMNs, greater than PMNs without oxyMb” value was found to be 5 fold. For the same substance, in the data set on PMNs [5], the “PMNs containing DNA strand breaks” value is 50% and the “PMNs containing DNA strand breaks, greater than PMNs without oxyMb” value is reported as 4 fold. In the data set with PMNs [6], the “PMN plasma membrane damage (reduced viability)” value was 87% and the “PMN plasma membrane damage, higher than PMNs without oxyMb” value amounted to 3 fold. Also, in the data set on PMNs [7], the “intracellular ATP levels” value is 6 ng/300,000 PMNs and the “intracellular ATP levels, lower than PMNs without oxyMb” value is given as 9 fold. For the same substance, the “lymphocyte plasma membrane integrity” value in the data set on lymphocytes (PMNs/lymphocyte ratio 0:1, PMA) is recorded as 76%. The “lymphocyte plasma membrane integrity” value with lymphocytes (PMNs/lymphocyte ratio 4:1, PMA) was 68%. The “lymphocyte plasma membrane integrity” value in the data set with lymphocytes (PMNs/lymphocyte ratio 10:1, PMA) worked out at 61%.

On to “Bovine liver SOD: bovine liver Cu, Zn superoxide dismutase”, for which the “SOD concentration producing peak levels of DCFH oxidation” value in the data set on PMNs [2] (PMA-stimulated PMNs, in the presence of 30 μg/mL oxyMb) turned out to be 300 U/mL. Moreover, in the data set on PMNs [8], the “potency in reducing extracellular O2.− relative to oxyMb” value was 100-1000 fold. In addition, the “effect on DCF fluorescence at highest SOD concentration” value with PMNs [9] is given as “reduced DCF fluorescence below control levels”.
